{"source": "PubChem BioAssay AID326", "about": "(DTP/NCI, 2004)", "test_system": "CD2F1 mice, P388/DHAQ leukemia ip, median survival T/C", "assay": "NCI In Vivo Anticancer Drug Screen. Data for tumor model P388 Leukemia resistant to Dihydroxy Anthracenedione; NSC 299195 (intraperitoneal) in CD2F1 (CDF1) mice", "details": "endpoint: median survival time, higher = longer survival", "procedure": "The antitumor activity of compounds was measured in mice bearing transplantable tumors. Survival or tumor size were measured and the results are expressed as the measurement made in the treated group (T) divided by the measurement made in the vehicle treated control group (C). The tumor model used in this assay is P388 Leukemia resistant to Dihydroxy Anthracenedione; NSC 299195 (intraperitoneal) in CD2F1 (CDF1) mice", "key": {"[1]": {"details": "dose: 2.0 mg/kg/injection, schedule: Q04DX003 (ip), vehicle: saline"}}, "note": "“And” between values parts separate entries of the source, which are not always exact repeats. Identical values can stand only once. Toxic doses and inconclusive results are not listed."}
{"smiles": "C[n+]1ccc(Nc2ccc(NC(=O)c3ccc(Nc4cc[n+](C)c5ccc(N)cc45)cc3)cc2)cc1", "values": [{"measurement": "T/C", "setting": "dose: 1.94 mg/kg/injection, schedule: Q04DX003 (ip), vehicle: water", "result": "114 % of control"}, {"measurement": "T/C", "setting": "dose: 3.24 mg/kg/injection, schedule: Q04DX003 (ip), vehicle: water", "result": "116 % of control"}, {"measurement": "T/C", "setting": "dose: 5.4 mg/kg/injection, schedule: Q04DX003 (ip), vehicle: water", "result": "116 % of control"}]}
{"smiles": "CC(=O)[C@]1(O)Cc2c(O)c3c(c(O)c2[C@@H](OC2CC(N)C(O)C(C)O2)C1)C(=O)c1c(O)cccc1C3=O", "note": "(stereo not given in full)", "values": [{"measurement": "T/C", "setting": "dose: 0.32 mg/kg/injection, schedule: Q04DX003 (ip), vehicle: saline", "result": "113 % of control"}, {"measurement": "T/C", "setting": "dose: 0.54 mg/kg/injection, schedule: Q04DX003 (ip), vehicle: saline", "result": "111 % of control"}, {"measurement": "T/C", "setting": "dose: 1.5 mg/kg/injection, schedule: Q04DX003 (ip), vehicle: saline", "result": "110 % of control"}, {"measurement": "T/C", "setting": "[1]", "result": "96 % of control"}, {"measurement": "T/C", "setting": "dose: 2.5 mg/kg/injection, schedule: Q04DX003 (ip), vehicle: saline", "result": "95 % of control"}]}
{"smiles": "O=C1c2c(O)ccc(O)c2C(=O)c2c(NCCNCCO)ccc(NCCNCCO)c21", "values": [{"measurement": "T/C", "setting": "dose: 0.65 mg/kg/injection, schedule: Q04DX003 (ip), vehicle: saline", "result": "112 % of control"}, {"measurement": "T/C", "setting": "dose: 0.78 mg/kg/injection, schedule: Q04DX003 (ip), vehicle: saline", "result": "119 % of control and 111 % of control"}, {"measurement": "T/C", "setting": "dose: 1.08 mg/kg/injection, schedule: Q04DX003 (ip), vehicle: saline", "result": "107 % of control"}, {"measurement": "T/C", "setting": "dose: 1.3 mg/kg/injection, schedule: Q04DX002 (ip), vehicle: water", "result": "112 % of control and 114 % of control and 100 % of control"}, {"measurement": "T/C", "setting": "dose: 1.62 mg/kg/injection, schedule: Q04DX003 (ip), vehicle: saline", "result": "104 % of control"}, {"measurement": "T/C", "setting": "dose: 2.16 mg/kg/injection, schedule: Q04DX002 (ip), vehicle: water", "result": "103 % of control and 120 % of control"}, {"measurement": "T/C", "setting": "dose: 2.7 mg/kg/injection, schedule: Q04DX003 (ip), vehicle: saline", "result": "119 % of control"}, {"measurement": "T/C", "setting": "dose: 3.6 mg/kg/injection, schedule: Q04DX002 (ip), vehicle: water", "result": "104 % of control and 105 % of control and 97 % of control"}, {"measurement": "T/C", "setting": "dose: 4.0 mg/kg/injection, schedule: Q04DX002 (ip), vehicle: water", "result": "100 % of control"}, {"measurement": "T/C", "setting": "dose: 4.5 mg/kg/injection, schedule: Q04DX003 (ip), vehicle: saline", "result": "124 % of control"}, {"measurement": "T/C", "setting": "dose: 6.0 mg/kg/injection, schedule: Q04DX002 (ip), vehicle: water", "result": "93 % of control and 96 % of control and 97 % of control"}, {"measurement": "T/C", "setting": "dose: 6.67 mg/kg/injection, schedule: Q04DX002 (ip), vehicle: water", "result": "106 % of control"}, {"measurement": "T/C", "setting": "dose: 7.5 mg/kg/injection, schedule: Q04DX003 (ip), vehicle: saline", "result": "120 % of control"}, {"measurement": "T/C", "setting": "dose: 10.0 mg/kg/injection, schedule: Q04DX002 (ip), vehicle: water", "result": "87 % of control and 88 % of control"}, {"measurement": "T/C", "setting": "dose: 10.0 mg/kg/injection, schedule: Q04DX003 (ip), vehicle: saline", "result": "109 % of control"}]}
{"smiles": "CC[C@]1(O)C[C@H]2CN(CCc3c([nH]c4ccccc34)[C@@](C(=O)OC)(c3cc4c(cc3OC)N(C=O)[C@H]3[C@@](O)(C(=O)OC)[C@H](OC(C)=O)[C@]5(CC)C=CCN6CC[C@]43[C@@H]65)C2)C1", "values": [{"measurement": "T/C", "setting": "dose: 0.43 mg/kg/injection, schedule: Q04DX003 (ip), vehicle: saline", "result": "160 % of control"}, {"measurement": "T/C", "setting": "dose: 0.72 mg/kg/injection, schedule: Q04DX003 (ip), vehicle: saline", "result": "150 % of control and 158 % of control and 169 % of control"}, {"measurement": "T/C", "setting": "dose: 1.2 mg/kg/injection, schedule: Q04DX003 (ip), vehicle: saline", "result": "161 % of control and 168 % of control and 172 % of control"}, {"measurement": "T/C", "setting": "[1]", "result": "168 % of control and 169 % of control and 195 % of control"}]}
{"smiles": "CC(=O)N(C)c1ccc(Nc2cc(C)[nH]c3ccc4ncnc4c23)cc1", "values": [{"measurement": "T/C", "setting": "dose: 19.4 mg/kg/injection, schedule: Q04DX002 (ip), vehicle: saline", "result": "98 % of control"}, {"measurement": "T/C", "setting": "dose: 20.7 mg/kg/injection, schedule: Q04DX002 (ip), vehicle: saline", "result": "98 % of control"}, {"measurement": "T/C", "setting": "dose: 32.4 mg/kg/injection, schedule: Q04DX002 (ip), vehicle: saline", "result": "94 % of control"}, {"measurement": "T/C", "setting": "dose: 34.6 mg/kg/injection, schedule: Q04DX002 (ip), vehicle: saline", "result": "91 % of control"}, {"measurement": "T/C", "setting": "dose: 54.0 mg/kg/injection, schedule: Q04DX002 (ip), vehicle: saline", "result": "116 % of control"}, {"measurement": "T/C", "setting": "dose: 57.6 mg/kg/injection, schedule: Q04DX002 (ip), vehicle: saline", "result": "94 % of control"}, {"measurement": "T/C", "setting": "dose: 96.0 mg/kg/injection, schedule: Q04DX002 (ip), vehicle: saline", "result": "108 % of control"}, {"measurement": "T/C", "setting": "dose: 160.0 mg/kg/injection, schedule: Q04DX002 (ip), vehicle: saline", "result": "98 % of control"}]}
